The compounds below were run against Cyclin-dependent kinase 4 (Homo sapiens, UniProt P11802).
Cyclin-dependent kinase 4, sequence (P11802 whole entry): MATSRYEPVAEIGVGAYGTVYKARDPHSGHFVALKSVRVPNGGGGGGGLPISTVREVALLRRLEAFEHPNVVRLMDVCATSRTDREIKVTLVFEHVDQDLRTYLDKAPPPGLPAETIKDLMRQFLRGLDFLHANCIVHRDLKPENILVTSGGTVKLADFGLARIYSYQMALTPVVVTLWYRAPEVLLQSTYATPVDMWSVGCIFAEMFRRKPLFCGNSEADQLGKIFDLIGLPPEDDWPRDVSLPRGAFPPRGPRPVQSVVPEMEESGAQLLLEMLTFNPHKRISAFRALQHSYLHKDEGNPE
`Nc1nc(N)c(N=O)c(=O)[nH]1` showed an IC50 of 230 nM. With `CN(C)CCNS(=O)(=O)c1ccc(Nc2cccc(-c3cnc4ccccn34)c2)cc1` the IC50 was 260 nM. `CC(C)(C)Nc1nc(C(F)(F)F)nc2ccc(Nc3ccccc3)cc12` gave an IC50 greater than 2100 nM. In the case of `O=C1Cc2c([nH]c3ccc([N+](=O)[O-])cc23)-c2ccccc2N1` [ALSTERPAULLONE], the IC50 is reported as greater than 10000 nM. `Nc1nc2ccc(C(=O)c3c(F)cccc3Cl)cc2n1Cc1c(F)cccc1F` showed an IC50 of 810 nM. Work on `CCCCOc1c(C(=O)c2c(F)cc(C)cc2F)ccc2[nH]ncc12` yielded an IC50 of 2700 nM. Work on `O=C(Cc1ccc2ccccc2c1)Nc1cc(C2CC2)n[nH]1` yielded an IC50 greater than 10000 nM. For `O=C(Nc1ccccn1)Nc1cccc2c1[C@H]1CCCN1C2=O`, the IC50 was 2 nM. For `O=C1C(c2c(O)[nH]c3ccc(S(=O)(=O)O)cc23)=Nc2ccccc21`, the IC50 was 200 nM. For `Cc1ccc(F)c(Nc2nccc(-c3ccc(S(N)(=O)=O)cc3)n2)c1`, the IC50 was 150 nM.

The compounds below were run against Cyclin-dependent kinase 6 (Homo sapiens, UniProt Q00534).
Cyclin-dependent kinase 6, sequence (Q00534 whole entry): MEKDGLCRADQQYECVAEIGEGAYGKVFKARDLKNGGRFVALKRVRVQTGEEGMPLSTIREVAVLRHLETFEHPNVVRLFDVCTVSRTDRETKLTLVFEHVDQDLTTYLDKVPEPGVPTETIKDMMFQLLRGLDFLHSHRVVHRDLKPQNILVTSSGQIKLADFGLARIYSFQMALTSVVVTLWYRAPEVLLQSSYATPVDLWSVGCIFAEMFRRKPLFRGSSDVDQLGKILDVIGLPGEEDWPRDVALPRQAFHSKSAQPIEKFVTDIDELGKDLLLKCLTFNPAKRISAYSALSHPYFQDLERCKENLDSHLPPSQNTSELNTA
In the case of `CCNc1cc(N[C@H]2CC[C@@H](O)CC2)nc(Nc2ccc3c(ccn3Cc3ccccc3)c2)n1`, the IC50 is reported as 5600 nM.

These compounds were tested against Cyclin-dependent kinase 2/cyclin A (Homo sapiens, UniProt P24941).
Assay type: protein-complex assay
Description: Inhibition of CDK2/cyclin A
`CC(=O)N[C@@H](CCCN=C(N)N)C(=O)N[C@@H](CCCN=C(N)N)C(=O)N[C@@H](CC(C)C)C(=O)N[C@@H](CC(N)=O)C(=O)N[C@@H](Cc1ccccc1)C(N)=O` was tested, and the IC50 was greater than 50000 nM.

These compounds were tested against Cyclin-dependent kinase 5 (Homo sapiens, UniProt Q00535).
Cyclin-dependent kinase 5, sequence (Q00535 whole entry): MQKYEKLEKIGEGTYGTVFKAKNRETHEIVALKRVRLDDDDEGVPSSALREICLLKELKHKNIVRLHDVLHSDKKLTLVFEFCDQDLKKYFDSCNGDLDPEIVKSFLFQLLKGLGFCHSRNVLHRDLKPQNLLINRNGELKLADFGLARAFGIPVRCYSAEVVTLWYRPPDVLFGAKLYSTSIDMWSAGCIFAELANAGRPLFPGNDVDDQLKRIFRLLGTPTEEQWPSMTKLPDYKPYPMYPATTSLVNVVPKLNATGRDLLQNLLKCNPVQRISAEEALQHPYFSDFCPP
In the case of `O=C(Nc1cc(C2CCC2)c[nH]1)Nc1cccc2ccncc12`, the IC50 is reported as 5 nM. `COc1ccc(-c2[nH]nc3c2C(=O)c2c(NC(=O)NNC(=O)c4ccc(O)cc4)cccc2-3)cc1` gave an IC50 of 5 nM. For `CC1(C)CC2(C)Nc3cc(-c4ccc5c(c4)NC4(C)CC(C)(C)NC(=S)N54)ccc3N2C(=S)N1` (stereo unspecified), the IC50 was 25000 nM. With `CCNc1cc(N[C@H]2CC[C@@H](O)CC2)nc(Nc2ccc3c(ccn3Cc3ccccc3)c2)n1` the IC50 was 25000 nM.

— ChEMBL document CHEMBL1240533, “Selectivity and potency of cyclin-dependent kinase inhibitors” (AAPS J, 2006)
